# Results reported in patent US8685730B2, “Methods and devices for differentiating pluripotent stem cells into cells of the pancreatic lineage” (Wisconsin Alumni Research Foundation, priority 2006, dated 2014).
# What was measured:
# Format in all cases: cell-based, human
# [1] = tested on: hESCs; assay: Quantitative RT-PCR (QPCR) of transcript accumulation in hESCs differentiated through Stages 1-4
# Experimental: Culture of undifferentiated hESCs or human iPS (hiPS) cells. Cell lines used were NIH-approved H1 (WA01) and H9 (WA09) between passage 18 and 42, though hiPS cell lines derived from iPS (IMR-90)-4-MCB-1, iPS (Foreskin)-1-MCB-1, and DF 19-9-7T-MCB-01 may be used, as well as mouse ES cells.
# Chemically defined medium comprised 80% DMEM/F12 and 20% Knockout serum replacement supplemented with 1 mM L-glutamine, 1% nonessential amino acids, 0.1 mM 2-mercaptoethanol and 4 ng/ml bFGF (all from Invitrogen). hESCs were cultured in 6-well plates on a feeder layer of irradiated MEFs, and the medium was refreshed daily. When the cells were nearly confluent, the ES cell colonies were split and passaged by detaching them from the feeder layer with 2 mg/ml dispase (Invitrogen). The colonies were then rinsed off the plates and filtered through a 70 μm cell strainer to remove MEFs. The colonies remained in the strainer. The retained cells were rinsed, pipetted into small pieces, and plated on growth factor-depleted Matrigel™ (BD Biosciences) at a density of 70% to 80% confluence in MEF-conditioned media.
# Stage 1. On the day after splitting, differentiation was initiated by replacing the medium with medium containing 100 ng/ml bFGF, 100 ng/ml Activin A and 50 ng/ml BMP4 (FAB) in DMEM/F12 supplemented with 2% BSA, 1 mML-glutamine, 1% nonessential amino acids and 0.1 mM 2-mercaptoethanol for 3 to 4 days. The medium was refreshed daily.
# (§1) Stage 2. FAB-treated cells were detached from the plate with 2 mg/ml dispase and grown in suspension as cell aggregates in MEF-conditioned medium (CM) for 2 days. On the third day, the medium was switched to DMEM/F12 with ITS supplement (BD, 5 μg/ml insulin+5 μg/ml transferrin+5 ng/ml selenous acid) and 50 ng/ml bFGF for 12 days in suspension culture dishes. The medium was refreshed every 2 days.
# Stage 3. Cell aggregates were transferred to a 15 ml centrifuge tube and allowed to settle by gravity. The medium was aspirated, and the pellet-containing tube placed on ice. Two milligrams of Matrigel™ were diluted with 3 ml of cold DMEM/F12 added to the pellet at a density of 50 to 100 cell aggregates/ml. One half milliliter of this diluted Matrigel™/cell aggregate mixture was added onto a coverslip previously loaded into wells of a 24-well plate and incubated overnight at 37° C. in 5% CO2.
# Nongelled Matrigel™ was aspirated from the wells and ITSFINE medium, a serum-free medium comprised of DMEM/F12 with ITS, 10 ng/ml FGF7 (R&D), 200 nM INGAP (PSN-4765, sequence: IGLHDPSHGTLPNGS), 10 mM nicotinamide (Sigma), 10 nM exendin-4 (Sigma), 4 μg/ml insulin (Gibco) and 2 g/L BSA (Sigma) was added for 21 to 28 days. The medium was refreshed every other day. As an alternative to DMEM/F12 only, DMEM/F12 may be used for the first 14 days of culture followed by 14 days of RPMI1640 as the base medium.
# Stage 4. The sphere-structured cell masses were washed and the medium was replaced with RPMI1640 supplemented with 1×B27 (Invitrogen) and 10 mM nicotinamide for 1 to 2 weeks. Alternatively, the sphere-structured cell masses may be dislodged with 2 mg/ml dispase (two hundred microliters of per well of a 24-well plate), rinsed off the plate, and placed in suspension culture dishes in DMEM/F12 supplemented with 1×B27 and 10 mM nicotinamide for 1 to 2 weeks.
# Total cellular RNA was extracted with Trizol (Invitrogen). cDNA was synthesized from 1 μg total RNA using a SuperScript First-Strand Synthesis kit (Invitrogen). Quantitative real time RT-PCR (QPCR) was performed using Assays-on-demand agents (Applied Biosystems) on an ABI PRISM 7700 Sequence Detection System (Applied Biosystems) for the following transcripts: foxa2, sox17, brachyury, ngn3, pdx1, insulin, glucagon, glut2 and an endogenous control, β-actin (see Table No. 2 for assay numbers). QPCR was performed according to the equipment manufacturer's instructions. Relative quantification was carried out using the comparative cycle threshold (CT) method recommended by the supplier. […]
# [2] = tested on: hESC; assay: Q-PCR CTs of pancreas-associated transcripts in BMP4-treated, differentiated hESC
# Experimental: (§2) Total cellular RNA was extracted with Trizol (Invitrogen). cDNA was synthesized from 1 μg total RNA using a SuperScript First-Strand Synthesis kit (Invitrogen). Quantitative real time RT-PCR (QPCR) was performed using Assays-on-demand agents (Applied Biosystems) on an ABI PRISM 7700 Sequence Detection System (Applied Biosystems) for the following transcripts: foxa2, sox17, brachyury, ngn3, pdx1, insulin, glucagon, glut2 and an endogenous control, β-actin (see Table No. 2 for assay numbers). QPCR was performed according to the equipment manufacturer's instructions. Relative quantification was carried out using the comparative cycle threshold (CT) method recommended by the supplier. Fold change was calculated as: 2^−ΔΔCT. Mean ΔΔCT values from QPCR analyses were compared using the unpaired, two-tailed Student's t-test. P values <0.05 were considered significant.
# [3] = tested on: hESCs; assay: Trophoblast differentiation (hCG and CDX2 expression); conditions: for cdx2 expression at Stage 1: compared to undifferentiated hESCs
# Experimental: FIG. 3 illustrates how treatment of hESCs with BMP4 and/or bFGF influences cell fate. Cultures of adherent, undifferentiated hESCs grown in MEF-conditioned media were treated for 1, 4, or 7 days and then assayed for human chorionic gonadotropin (hCG) protein expression (a) or hCG transcript accumulation by QPCR (b). For QPCR results, the fold change values and statistical analyses were calculated by comparing treated cells with cells grown to the same time point but without added growth factors (ctrl). B10, 10 ng/ml BMP4; B50, 50 ng/ml BMP4; B100, 100 ng/ml BMP4; B10F, 10 ng/ml BMP4+100 ng/ml bFGF; B50F, 50 ng/ml BMP4+100 ng/ml bFGF; B100F, 100 ng/ml BMP4+100 ng/ml bFGF. *, p<0.05; **, p<0.01.
# FIG. 4 illustrates the expression of cdx2 transcript at Stage 1. Fold change values compared to undifferentiated hESCs are shown. […] CM, conditioned media; F, bFGF; A, Activin A; B, BMP4; inhib, SB431542 Activin signaling inhibitor; D/F, DMEM/F12; I, insulin. See Materials and Methods for growth factor concentrations.
# as §2
# [4] = tested on: hESCs; assay: Embryoid body formation and pancreatic differentiation in suspension culture
# Experimental: as §1
molecule,measurement,setting,value
"BMP4: bone morphogenetic protein 4, member of the TGFβ superfamily","endoderm- (sox17, foxa2, pdx1) and pancreas-associated (pdx1, insulin) transcripts in EBs","[1]; hESCs grown on MEFs, 50 ng/ml",increased
same,Q-PCR CT of Foxa2,[2]; EB14,24.0
same,Q-PCR CT of Glucagon,[2]; EB14,28.7
same,Q-PCR CT of Glut2,[2]; EB14,23.0
same,Q-PCR CT of Insulin,[2]; EB14,34.6
same,Q-PCR CT of Pdx1,[2]; EB14,26.7
same,Q-PCR CT of T,[2]; EB14,25.4
same,Q-PCR CT of β-actin,[2]; EB14,15.0
same,Q-PCR CT of Foxa2,[2]; EB14 + 14,23.1
same,Q-PCR CT of Glucagon,[2]; EB14 + 14,22.0
same,Q-PCR CT of Glut2,[2]; EB14 + 14,22.0
same,Q-PCR CT of Insulin,[2]; EB14 + 14,28.4
same,Q-PCR CT of Pdx1,[2]; EB14 + 14,23.9
same,Q-PCR CT of T,[2]; EB14 + 14,27.9
same,Q-PCR CT of β-actin,[2]; EB14 + 14,14.7
same,Q-PCR CT of Foxa2,[2]; EB14 + 21,23.0
same,Q-PCR CT of Glucagon,[2]; EB14 + 21,21.0
same,Q-PCR CT of Glut2,[2]; EB14 + 21,21.1
same,Q-PCR CT of Insulin,[2]; EB14 + 21,27.8
same,Q-PCR CT of Pdx1,[2]; EB14 + 21,24.3
same,Q-PCR CT of T,[2]; EB14 + 21,28.4
same,Q-PCR CT of β-actin,[2]; EB14 + 21,14.9
same,Q-PCR CT of Foxa2,[2]; EB14 + 28,22.7
same,Q-PCR CT of Glucagon,[2]; EB14 + 28,20.2
same,Q-PCR CT of Glut2,[2]; EB14 + 28,20.4
same,Q-PCR CT of Insulin,[2]; EB14 + 28,26.0
same,Q-PCR CT of Pdx1,[2]; EB14 + 28,23.0
same,Q-PCR CT of T,[2]; EB14 + 28,28.5
same,Q-PCR CT of β-actin,[2]; EB14 + 28,15.4
same,Q-PCR CT of Foxa2,[2]; hESC + BMP4,25.6
same,Q-PCR CT of Glucagon,[2]; hESC + BMP4,>50
same,Q-PCR CT of Glut2,[2]; hESC + BMP4,32.8
same,Q-PCR CT of Insulin,[2]; hESC + BMP4,>50
same,Q-PCR CT of Pdx1,[2]; hESC + BMP4,36.4
same,Q-PCR CT of T,[2]; hESC + BMP4,25.6
same,Q-PCR CT of β-actin,[2]; hESC + BMP4,15.0
same,cdx2 expression at Stage 1,[3],increase in cdx2 expression
same,trophoblast differentiation (hCG and CDX2 expression),"[3]; higher concentrations, alone, 7 days",high proportion of trophoblast differentiation
"NC(=O)c1ccc(-c2nc(-c3ccc4c(c3)OCO4)c(-c3ccccn3)[nH]2)cc1 [SB431542, reference compound]","expression of gsc, Mixl1, Brachyury and FOXA2",[1]; added to cells treated with bFGF+BMP4 in CM,completely inhibited expression
"insulin: a PI3K agonist, component of serum replacement",induction of Brachyury,[1]; combined with Activin A,significantly increased
same,induction of SOX17,[1]; combined with Activin A,significantly decreased
"noggin: a known BMP antagonist (protein, UniProt Q13253 28-232, looked up) Noggin: QHYLHIRPAPSDNLPLVDLIEHPDPIFDPKEKDLNETLLRSLLGGHYDPGFMATSPPEDRPGGGGGAAGGAEDLAELDQLLRQRPSGAMPSEIKGLEFSEGLAQGKKQRLSKKLRRKLQMWLWSQTFCPVLYAWNDLGSRFWPRYVKVGSCFSKRSCSVPEGMVCKPSKSVHLTVLRWRCQRRGGQRCGWIPIQYPIISECKCSC",effect of BMP4 on endoderm- and pancreas-associated transcripts,"[1]; 300 ng/ml, simultaneous incubation with 50 ng/ml BMP4",eliminated
same,"expression of SOX17, FOXA2, Brachyury and PDX1","[1]; added during Stage 1, read at the end of Stage 2",significantly reduced levels of expression
"Activin A: member of the TGF-β superfamily (protein, UniProt P08476 311-426, looked up, Inhibin beta A chain, member of the TGF-β superfamily) Inhibin beta A chain: GLECDGKVNICCKKQFFVSFKDIGWNDWIIAPSGYHANYCEGECPSHIAGTSGSSLSFHSTVINHYRMRGHSPFANLKSCCVPTKLRPMSMLYYDDGQNIIKKDIQNMIVEECGCS","induction of MIXL1, GSC, T, SOX17 and FOXA2","[1]; CDM, compared to undifferentiated cells in CM",significant induction
same,induction of pancreatic cell differentiation,"[4]; 5, 50 or 100 ng/ml in serum-free medium, treatment alone",cannot induce pancreatic cell differentiation
same,EB formation from treated hESCs,[4]; Stage 1 treatment in CDM,failed to develop
same,cdx2 expression at Stage 1,[3],essentially eliminates expression of cdx2
